Earlier results in patent publication US6620802B1, “Methods of treating mild cognitive impairment using a glucocorticoid-specific receptor antagonist” (Corcept Therapeutics, Inc., priority 1999, dated 2003).

How the values were obtained:
[1] = target: T1, glucocorticoid (GR) receptor (Homo sapiens, UniProt P04150); conditions: literature statement
T1 sequence (P04150 1-777): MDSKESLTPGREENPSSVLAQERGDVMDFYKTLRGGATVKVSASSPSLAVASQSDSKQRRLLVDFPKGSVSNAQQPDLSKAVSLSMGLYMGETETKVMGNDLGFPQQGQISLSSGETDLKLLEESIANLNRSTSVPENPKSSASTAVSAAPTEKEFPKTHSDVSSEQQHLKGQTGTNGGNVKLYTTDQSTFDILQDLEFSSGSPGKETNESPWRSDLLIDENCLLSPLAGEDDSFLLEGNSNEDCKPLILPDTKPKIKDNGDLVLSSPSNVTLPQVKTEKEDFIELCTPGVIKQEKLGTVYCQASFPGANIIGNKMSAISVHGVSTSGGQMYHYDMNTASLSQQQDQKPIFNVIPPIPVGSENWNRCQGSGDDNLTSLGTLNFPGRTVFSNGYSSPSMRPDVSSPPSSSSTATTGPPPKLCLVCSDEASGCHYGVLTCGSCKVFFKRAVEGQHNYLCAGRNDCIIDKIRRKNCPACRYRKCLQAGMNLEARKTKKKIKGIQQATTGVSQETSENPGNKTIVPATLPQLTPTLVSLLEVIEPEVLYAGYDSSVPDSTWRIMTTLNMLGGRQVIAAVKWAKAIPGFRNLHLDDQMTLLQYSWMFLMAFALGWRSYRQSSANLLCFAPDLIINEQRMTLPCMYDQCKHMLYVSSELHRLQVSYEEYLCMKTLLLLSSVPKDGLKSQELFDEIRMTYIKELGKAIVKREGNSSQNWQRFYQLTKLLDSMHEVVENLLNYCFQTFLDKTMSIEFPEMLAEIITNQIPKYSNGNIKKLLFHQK

[2] = system: mouse hippocampus neuronal cells; conditions: Behl et al. 1997
rat hippocampus = conditions: Talmi et al. 1996
[3] = one study, Kawai (1989) supra
progesterone receptor = target: T2, progesterone receptor (Homo sapiens, UniProt P06401); conditions: literature statement
T2 sequence (P06401 1-933): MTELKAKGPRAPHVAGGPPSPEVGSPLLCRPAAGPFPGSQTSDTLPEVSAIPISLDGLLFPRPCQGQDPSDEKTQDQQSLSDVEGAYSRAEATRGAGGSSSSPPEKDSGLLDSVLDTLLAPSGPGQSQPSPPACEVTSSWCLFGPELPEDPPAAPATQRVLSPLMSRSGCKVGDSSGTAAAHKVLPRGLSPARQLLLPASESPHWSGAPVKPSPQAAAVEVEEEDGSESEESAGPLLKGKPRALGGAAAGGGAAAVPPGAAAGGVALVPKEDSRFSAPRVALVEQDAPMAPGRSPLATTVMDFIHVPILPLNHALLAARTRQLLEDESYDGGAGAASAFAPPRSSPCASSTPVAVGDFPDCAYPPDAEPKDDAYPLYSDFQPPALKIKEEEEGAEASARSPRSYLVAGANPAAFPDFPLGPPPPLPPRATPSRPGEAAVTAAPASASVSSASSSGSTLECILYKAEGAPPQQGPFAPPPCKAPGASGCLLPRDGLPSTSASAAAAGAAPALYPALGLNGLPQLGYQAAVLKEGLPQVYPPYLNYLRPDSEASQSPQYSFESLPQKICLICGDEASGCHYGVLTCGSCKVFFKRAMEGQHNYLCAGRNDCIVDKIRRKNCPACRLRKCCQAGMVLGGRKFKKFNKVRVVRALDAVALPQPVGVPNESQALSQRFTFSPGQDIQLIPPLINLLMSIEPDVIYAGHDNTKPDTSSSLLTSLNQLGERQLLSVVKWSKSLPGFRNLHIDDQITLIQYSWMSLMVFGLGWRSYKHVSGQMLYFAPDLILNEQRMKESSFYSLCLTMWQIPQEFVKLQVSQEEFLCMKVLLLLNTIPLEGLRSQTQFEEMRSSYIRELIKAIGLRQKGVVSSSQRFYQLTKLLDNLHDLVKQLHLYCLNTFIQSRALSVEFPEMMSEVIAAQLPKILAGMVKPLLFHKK

Compound | GR antagonist activity [1] | protection against oxidative stress-induced neuronal cell death [2] | effect on age-associated electrophysiological changes (rat hippocampus) | share of the daily dose excreted in the urine [3] | progesterone receptor antagonist activity (progesterone receptor)
CC#C[C@]1(O)CC[C@H]2[C@@H]3CCC4=CC(=O)CCC4=C3[C@@H](c3ccc(N(C)C)cc3)C[C@@]21C [Mifepristone, 17-beta-hydroxy-11-beta-(4-dimethyl-aminophenyl)-17-alpha(1-propynyl)-estra-4,9-dien-3-one] | powerful antagonist | providing protection against oxidative stress-induced neuronal cell death | effective at abrogating some of the age-associated electrophysiological changes | less than 0.5% | powerful antagonist
CC#C[C@]1(O)CC[C@H]2[C@@H]3CCC4=CC(=O)CCC4=C3[C@@H](c3ccc(OCCN(C)C)cc3)C[C@@]21C [RU009, 11-beta-(4-dimethyl-aminoethoxyphenyl)-17-alpha-(propynyl-17-beta-hydroxy-4,9-estradien-3-one)] | shown to have GR antagonist effects |  |  |  | 
